From ChEMBL document CHEMBL1909046, “DrugMatrix in vitro pharmacology data” come the findings set out here.

The first assay deals with T1, Calcitonin receptor (Homo sapiens, UniProt P30988).
T1 sequence (P30988 whole entry): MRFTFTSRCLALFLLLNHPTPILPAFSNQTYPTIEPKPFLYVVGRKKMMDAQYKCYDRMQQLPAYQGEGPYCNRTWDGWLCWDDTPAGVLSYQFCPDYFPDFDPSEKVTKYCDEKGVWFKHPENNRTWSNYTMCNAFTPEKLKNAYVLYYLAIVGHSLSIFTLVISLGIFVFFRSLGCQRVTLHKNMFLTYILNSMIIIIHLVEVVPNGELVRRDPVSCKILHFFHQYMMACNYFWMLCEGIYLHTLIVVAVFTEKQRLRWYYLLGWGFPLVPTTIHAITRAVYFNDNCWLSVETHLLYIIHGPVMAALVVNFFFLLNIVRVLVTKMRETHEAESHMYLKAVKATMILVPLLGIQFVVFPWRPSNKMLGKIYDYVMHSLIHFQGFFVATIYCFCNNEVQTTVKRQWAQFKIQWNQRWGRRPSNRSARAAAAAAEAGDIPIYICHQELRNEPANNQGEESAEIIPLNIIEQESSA
Assay: not given
The assay is classed as cell membranes, Membrane. The settings on record: t47d.
On to `O=C(c1ccccc1Cl)N1CCC(Cc2ccccc2)CC1`, for which the IC50 entry is listed as “Not Active”.
Turning to `CCOC(=O)[C@H](CCc1ccccc1)N[C@@H](C)C(=O)N1CCC[C@H]1C(=O)O`, the IC50 entry is on record as “Not Active”.
`Clc1cc2c(cc1Cl)Oc1cc(Cl)c(Cl)cc1O2` [2,3,7,8-TETRACHLORODIBENZO-P-DIOXIN]: the IC50 entry was “Not Active”.
With `CN1C[C@H](C(=O)N[C@]2(C)O[C@@]3(O)[C@@H]4CCCN4C(=O)[C@H](Cc4ccccc4)N3C2=O)C[C@@H]2c3cccc4[nH]cc(c34)C[C@H]21` [DIHYDROERGOTAMINE], the IC50 result was “Not Active”.

Test system in the next assay: not listed separately
In words: DRUGMATRIX: Calcium Channel Type L, Phenylalkylamine radioligand binding (ligand: [3H] (-)-Desmethoxyverapamil (D-888)). To be noted: Not Active = under 50% inhibition at 10 µM. The class given is cell membranes, Rattus norvegicus, Wistar, Brain, Membrane.
`O=C(c1ccccc1Cl)N1CCC(Cc2ccccc2)CC1`: the IC50 result is given as “Not Active” and the Ki entry was “Not Active”.
For the compound `CCOC(=O)[C@H](CCc1ccccc1)N[C@@H](C)C(=O)N1CCC[C@H]1C(=O)O`, the IC50 result is listed as “Not Active” and the Ki result is given as “Not Active”.
Turning to `Clc1cc2c(cc1Cl)Oc1cc(Cl)c(Cl)cc1O2` [2,3,7,8-TETRACHLORODIBENZO-P-DIOXIN], the IC50 entry is recorded as “Not Active” and the Ki result is listed as “Not Active”.

Another assay concerns the target T2, Endothelin-1 receptor (Homo sapiens, UniProt P25101). Further: in other assays of this panel Not Active means under 50% inhibition at 10 µM.
T2 sequence (P25101 whole entry): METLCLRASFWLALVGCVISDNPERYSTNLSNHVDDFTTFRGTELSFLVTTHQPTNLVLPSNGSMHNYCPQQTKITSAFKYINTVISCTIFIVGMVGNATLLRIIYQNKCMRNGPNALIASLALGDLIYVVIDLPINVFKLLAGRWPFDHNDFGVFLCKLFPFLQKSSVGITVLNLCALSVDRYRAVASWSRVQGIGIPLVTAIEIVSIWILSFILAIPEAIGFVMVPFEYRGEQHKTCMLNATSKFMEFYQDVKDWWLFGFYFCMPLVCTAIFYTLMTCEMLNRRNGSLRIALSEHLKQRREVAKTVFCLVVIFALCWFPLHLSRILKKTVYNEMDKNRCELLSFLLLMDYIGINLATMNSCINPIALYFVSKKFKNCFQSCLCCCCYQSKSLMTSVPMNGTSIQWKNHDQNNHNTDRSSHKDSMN
Assay: not given
The settings on record: cho-k1. The assay is classed as cell membranes, CHO-K1, Membrane.
Consider `O=C(c1ccccc1Cl)N1CCC(Cc2ccccc2)CC1`, for which the IC50 result was “Not Active”.
As to `CCOC(=O)[C@H](CCc1ccccc1)N[C@@H](C)C(=O)N1CCC[C@H]1C(=O)O`, the IC50 result is recorded as “Not Active”.
In the case of `Clc1cc2c(cc1Cl)Oc1cc(Cl)c(Cl)cc1O2` [2,3,7,8-TETRACHLORODIBENZO-P-DIOXIN], the IC50 entry is “Not Active”.
With `CN1C[C@H](C(=O)N[C@]2(C)O[C@@]3(O)[C@@H]4CCCN4C(=O)[C@H](Cc4ccccc4)N3C2=O)C[C@@H]2c3cccc4[nH]cc(c34)C[C@H]21` [DIHYDROERGOTAMINE], the IC50 result was “Not Active”.

The target in another assay is T3, D(4) dopamine receptor (Homo sapiens, UniProt P21917).
T3 sequence (P21917 whole entry): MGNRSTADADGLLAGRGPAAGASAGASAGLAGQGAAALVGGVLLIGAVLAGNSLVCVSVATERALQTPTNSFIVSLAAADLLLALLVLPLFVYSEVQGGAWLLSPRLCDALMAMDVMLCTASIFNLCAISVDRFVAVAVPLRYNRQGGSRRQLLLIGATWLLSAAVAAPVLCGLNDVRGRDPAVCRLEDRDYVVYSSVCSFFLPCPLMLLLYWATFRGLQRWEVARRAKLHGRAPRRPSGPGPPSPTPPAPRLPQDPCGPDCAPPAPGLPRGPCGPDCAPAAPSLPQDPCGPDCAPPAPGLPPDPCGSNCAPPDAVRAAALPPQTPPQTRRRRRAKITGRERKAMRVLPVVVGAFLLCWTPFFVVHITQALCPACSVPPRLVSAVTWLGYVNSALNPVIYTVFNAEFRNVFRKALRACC
In words: DRUGMATRIX: Dopamine D4.2 radioligand binding (ligand: [3H] Spiperone). The class given is cell membranes, CHO-K1, Membrane. The settings on record: cho-k1; Not Active = under 50% inhibition at 10 µM.
As for `O=C(c1ccccc1Cl)N1CCC(Cc2ccccc2)CC1`, the IC50 result was “Not Active”.
Still for that read-out and setting: in the case of `CCOC(=O)[C@H](CCc1ccccc1)N[C@@H](C)C(=O)N1CCC[C@H]1C(=O)O` it was “Not Active”; in that of `Clc1cc2c(cc1Cl)Oc1cc(Cl)c(Cl)cc1O2` [2,3,7,8-TETRACHLORODIBENZO-P-DIOXIN], “Not Active”; in that of `CN1C[C@H](C(=O)N[C@]2(C)O[C@@]3(O)[C@@H]4CCCN4C(=O)[C@H](Cc4ccccc4)N3C2=O)C[C@@H]2c3cccc4[nH]cc(c34)C[C@H]21` [DIHYDROERGOTAMINE], “Not Active”.

A further assay deals with Aldo-keto reductase family 1 member B1 (Rattus norvegicus, UniProt P07943). In words: biochemical. The assay is classed as tissue-based, Lens of camera-type eye.
Details: not given
Turning to `O=C(c1ccccc1Cl)N1CCC(Cc2ccccc2)CC1`, the IC50 entry is “Not Active”.
Same read-out and setting: for `CCOC(=O)[C@H](CCc1ccccc1)N[C@@H](C)C(=O)N1CCC[C@H]1C(=O)O` the value was “Not Active”.
Still for that read-out and setting: for `Clc1cc2c(cc1Cl)Oc1cc(Cl)c(Cl)cc1O2` [2,3,7,8-TETRACHLORODIBENZO-P-DIOXIN] the value was “Not Active”.
For the compound `CN1C[C@H](C(=O)N[C@]2(C)O[C@@]3(O)[C@@H]4CCCN4C(=O)[C@H](Cc4ccccc4)N3C2=O)C[C@@H]2c3cccc4[nH]cc(c34)C[C@H]21` [DIHYDROERGOTAMINE], the IC50 entry is “Not Active”.

The target of the next assay is T4, Angiotensin-converting enzyme (Oryctolagus cuniculus, UniProt P12822).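 Further: enzymatic inhibition of angiotensin-converting enzyme measured with FAPGG as the substrate; in other assays of this panel Not Active means under 50% inhibition at 10 µM.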
T4 sequence (P12822 whole entry): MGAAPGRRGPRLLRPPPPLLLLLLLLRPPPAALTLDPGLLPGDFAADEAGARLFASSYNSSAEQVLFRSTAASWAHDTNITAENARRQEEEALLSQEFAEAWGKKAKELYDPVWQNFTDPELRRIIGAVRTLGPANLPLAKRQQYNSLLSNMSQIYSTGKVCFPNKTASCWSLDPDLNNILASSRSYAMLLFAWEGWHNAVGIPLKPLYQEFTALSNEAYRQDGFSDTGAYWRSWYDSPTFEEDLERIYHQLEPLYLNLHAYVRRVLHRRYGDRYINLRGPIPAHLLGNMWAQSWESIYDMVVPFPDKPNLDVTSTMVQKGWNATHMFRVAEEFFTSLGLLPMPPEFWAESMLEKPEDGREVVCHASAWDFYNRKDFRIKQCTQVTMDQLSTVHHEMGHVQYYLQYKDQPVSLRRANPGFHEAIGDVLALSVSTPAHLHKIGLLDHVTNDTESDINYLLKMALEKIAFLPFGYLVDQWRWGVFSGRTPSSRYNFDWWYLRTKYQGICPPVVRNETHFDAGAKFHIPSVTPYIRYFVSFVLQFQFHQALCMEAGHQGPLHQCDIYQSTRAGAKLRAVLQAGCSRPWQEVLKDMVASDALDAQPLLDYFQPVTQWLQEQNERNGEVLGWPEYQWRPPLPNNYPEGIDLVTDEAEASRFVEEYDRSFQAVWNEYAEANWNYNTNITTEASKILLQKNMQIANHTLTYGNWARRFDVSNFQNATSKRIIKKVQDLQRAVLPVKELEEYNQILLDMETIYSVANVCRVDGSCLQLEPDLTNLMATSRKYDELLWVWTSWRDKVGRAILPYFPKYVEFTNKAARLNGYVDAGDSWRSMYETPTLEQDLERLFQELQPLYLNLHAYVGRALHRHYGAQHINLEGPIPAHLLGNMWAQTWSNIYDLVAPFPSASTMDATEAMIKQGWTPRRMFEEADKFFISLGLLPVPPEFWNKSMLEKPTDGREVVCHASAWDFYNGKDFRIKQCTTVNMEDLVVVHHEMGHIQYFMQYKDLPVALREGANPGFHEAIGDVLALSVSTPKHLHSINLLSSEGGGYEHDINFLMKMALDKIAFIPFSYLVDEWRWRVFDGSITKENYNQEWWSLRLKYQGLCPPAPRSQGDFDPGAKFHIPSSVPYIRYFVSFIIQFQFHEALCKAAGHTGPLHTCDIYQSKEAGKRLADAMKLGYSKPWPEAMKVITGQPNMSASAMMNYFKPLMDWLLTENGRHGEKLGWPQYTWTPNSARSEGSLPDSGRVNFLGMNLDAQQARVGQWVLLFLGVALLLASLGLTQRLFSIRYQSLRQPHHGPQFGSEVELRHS
Assay: not given
The assay is classed as tissue-based, Lung.
Details: not given
With `O=C(c1ccccc1Cl)N1CCC(Cc2ccccc2)CC1`, the IC50 result is listed as “Not Active”.
For the compound `Clc1cc2c(cc1Cl)Oc1cc(Cl)c(Cl)cc1O2` [2,3,7,8-TETRACHLORODIBENZO-P-DIOXIN], the IC50 result is reported as “Not Active”.
For the compound `CN1C[C@H](C(=O)N[C@]2(C)O[C@@]3(O)[C@@H]4CCCN4C(=O)[C@H](Cc4ccccc4)N3C2=O)C[C@@H]2c3cccc4[nH]cc(c34)C[C@H]21` [DIHYDROERGOTAMINE], the IC50 entry is “Not Active”.

Test system in a further assay: not listed separately
In words: DRUGMATRIX: Glutamate, NMDA, Agonism radioligand binding (ligand: [3H] CGP-39653). The assay is classed as cell membranes, Rattus norvegicus, Wistar, Cerebral cortex, Membrane. To be noted: Not Active = under 50% inhibition at 10 µM.
Regarding `O=C(c1ccccc1Cl)N1CCC(Cc2ccccc2)CC1`, the IC50 entry is on record as “Not Active” and the Ki result is “Not Active”.
As for `CCOC(=O)[C@H](CCc1ccccc1)N[C@@H](C)C(=O)N1CCC[C@H]1C(=O)O`, the IC50 result is reported as “Not Active” and the Ki result was “Not Active”.
As for `Clc1cc2c(cc1Cl)Oc1cc(Cl)c(Cl)cc1O2` [2,3,7,8-TETRACHLORODIBENZO-P-DIOXIN], the IC50 entry was “Not Active” and the Ki entry is “Not Active”.
For the compound `CN1C[C@H](C(=O)N[C@]2(C)O[C@@]3(O)[C@@H]4CCCN4C(=O)[C@H](Cc4ccccc4)N3C2=O)C[C@@H]2c3cccc4[nH]cc(c34)C[C@H]21` [DIHYDROERGOTAMINE], the IC50 result is recorded as “Not Active” and the Ki entry is “Not Active”.

Test system in another assay: not listed separately
In words: DRUGMATRIX: GABAA, Muscimol, Central radioligand binding (ligand: [3H] Muscimol). The settings on record: Not Active = under 50% inhibition at 10 µM. The assay is classed as cell membranes, Rattus norvegicus, Wistar, Brain, Membrane.
Take `O=C(c1ccccc1Cl)N1CCC(Cc2ccccc2)CC1`: the IC50 entry was “Not Active” and the Ki result is recorded as “Not Active”.
Take `CCOC(=O)[C@H](CCc1ccccc1)N[C@@H](C)C(=O)N1CCC[C@H]1C(=O)O`: the IC50 entry is listed as “Not Active” and the Ki result is reported as “Not Active”.
As to `Clc1cc2c(cc1Cl)Oc1cc(Cl)c(Cl)cc1O2` [2,3,7,8-TETRACHLORODIBENZO-P-DIOXIN], the IC50 result is given as “Not Active” and the Ki result is “Not Active”.
Consider `CN1C[C@H](C(=O)N[C@]2(C)O[C@@]3(O)[C@@H]4CCCN4C(=O)[C@H](Cc4ccccc4)N3C2=O)C[C@@H]2c3cccc4[nH]cc(c34)C[C@H]21` [DIHYDROERGOTAMINE], for which the IC50 entry is “Not Active” and the Ki entry was “Not Active”.
